Laboratory results reported in ChEMBL document CHEMBL1146613, “Novel inhibitors of procollagen C-terminal proteinase. Part 1: diamino Acid hydroxamates” (Bioorg Med Chem Lett, 2003).
pKi: −log10 of the molar value.

Target: T1, Bone morphogenetic protein 1 (Homo sapiens, UniProt P13497)
T1 sequence (P13497 whole entry): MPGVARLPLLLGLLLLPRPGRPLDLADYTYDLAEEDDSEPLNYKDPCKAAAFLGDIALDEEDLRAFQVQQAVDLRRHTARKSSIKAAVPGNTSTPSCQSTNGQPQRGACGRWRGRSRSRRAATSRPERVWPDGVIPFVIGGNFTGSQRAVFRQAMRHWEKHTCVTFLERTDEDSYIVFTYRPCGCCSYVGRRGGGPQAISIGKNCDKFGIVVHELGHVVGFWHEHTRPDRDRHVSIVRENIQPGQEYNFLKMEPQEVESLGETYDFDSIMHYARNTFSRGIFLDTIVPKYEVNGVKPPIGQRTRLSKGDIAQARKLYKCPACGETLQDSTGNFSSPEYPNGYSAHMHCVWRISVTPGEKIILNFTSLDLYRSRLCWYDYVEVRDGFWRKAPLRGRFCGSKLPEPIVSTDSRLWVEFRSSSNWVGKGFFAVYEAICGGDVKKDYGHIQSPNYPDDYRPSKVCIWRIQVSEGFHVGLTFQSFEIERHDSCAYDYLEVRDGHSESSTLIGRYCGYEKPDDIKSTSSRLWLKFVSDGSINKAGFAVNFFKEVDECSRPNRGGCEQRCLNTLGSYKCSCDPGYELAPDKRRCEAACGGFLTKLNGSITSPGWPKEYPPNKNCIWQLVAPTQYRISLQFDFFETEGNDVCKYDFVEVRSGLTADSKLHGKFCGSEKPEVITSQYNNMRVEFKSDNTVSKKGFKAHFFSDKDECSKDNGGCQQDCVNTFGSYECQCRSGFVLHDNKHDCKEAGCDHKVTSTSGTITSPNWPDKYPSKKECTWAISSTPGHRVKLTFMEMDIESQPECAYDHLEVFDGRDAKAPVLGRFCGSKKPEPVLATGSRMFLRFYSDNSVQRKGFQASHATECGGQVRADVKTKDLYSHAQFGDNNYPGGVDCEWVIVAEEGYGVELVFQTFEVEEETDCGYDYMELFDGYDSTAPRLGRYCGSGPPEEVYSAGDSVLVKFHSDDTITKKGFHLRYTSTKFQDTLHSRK
Test: In vitro inhibitory activity against procollagen C-terminal proteinase (PCP) in HT1080 cells using synthetic peptide as substrate
Type: cell-based, HT-1080

pKi	Compound
7.00	COc1ccc(S(=O)(=O)N(Cc2ccc3c(c2)OCO3)[C@H](CCCNC(=O)c2ccccc2)C(=O)NO)cc1
7.85	COc1ccc(S(=O)(=O)N(Cc2ccc3c(c2)OCO3)[C@H](CNC(=O)c2ccccc2)C(=O)NO)cc1
6.39	COc1ccc(S(=O)(=O)N(Cc2ccc3c(c2)OCO3)[C@H](CCNC(=O)CCc2nc3ccccc3[nH]2)C(=O)NO)cc1
5.71	COc1ccc(S(=O)(=O)N(Cc2ccc3c(c2)OCO3)[C@H](CNC(=O)c2cnoc2C)C(=O)NO)cc1
6.00	COc1ccc(S(=O)(=O)N(Cc2ccc3c(c2)OCO3)[C@H](CNCc2ccc(NC(C)=O)cc2)C(=O)NO)cc1
7.07	COc1ccc(S(=O)(=O)N(Cc2ccc3c(c2)OCO3)[C@H](CCNC(=O)c2cnoc2C)C(=O)NO)cc1
6.33	COc1ccc(S(=O)(=O)N(Cc2ccc3c(c2)OCO3)[C@H](CCNC(=O)c2ccccc2)C(=O)NO)cc1
7.74	COc1ccc(S(=O)(=O)N(Cc2ccc3c(c2)OCO3)[C@H](CNC(=O)NS(=O)(=O)c2ccc(Cl)cc2)C(=O)NO)cc1
8.15	COC(=O)c1ccc(C(=O)NC[C@H](C(=O)NO)N(Cc2ccc3c(c2)OCO3)S(=O)(=O)c2ccc(OC)cc2)cc1
7.66	CCOc1ccc(NC(=O)NC[C@H](C(=O)NO)N(Cc2ccc3c(c2)OCO3)S(=O)(=O)c2ccc(OC)cc2)cc1
6.28	COc1ccc(S(=O)(=O)N(Cc2ccc3c(c2)OCO3)[C@H](CCNC(=O)c2ccccc2-n2cccc2)C(=O)NO)cc1
6.60	COc1ccc(S(=O)(=O)N(Cc2ccc3c(c2)OCO3)[C@H](CNC(=O)CNc2cnccn2)C(=O)NO)cc1
5.60	COc1ccc(S(=O)(=O)N(Cc2ccc3c(c2)OCO3)[C@H](CCNC(=O)CNc2cnccn2)C(=O)NO)cc1
8.10	COc1ccc(S(=O)(=O)N(Cc2ccc3c(c2)OCO3)[C@H](CNC(=O)c2ccccc2-n2cccc2)C(=O)NO)cc1
6.08	COC(=O)c1ccc(C(=O)NCC[C@H](C(=O)NO)N(Cc2ccc3c(c2)OCO3)S(=O)(=O)c2ccc(OC)cc2)cc1
6.46	COc1ccc(S(=O)(=O)N(Cc2ccc3c(c2)OCO3)[C@H](CCCCNC(=O)c2ccccc2)C(=O)NO)cc1
6.02	COc1ccc(S(=O)(=O)N(Cc2ccc3c(c2)OCO3)[C@H](CCNC(=O)c2c(-c3ccccc3)noc2C)C(=O)NO)cc1
6.33	CCOC(=O)C1CCC(NCC(=O)NCC[C@H](C(=O)NO)N(Cc2ccc3c(c2)OCO3)S(=O)(=O)c2ccc(OC)cc2)CC1 (some centres undefined)
7.55	COc1ccc(S(=O)(=O)N(Cc2ccc3c(c2)OCO3)[C@H](CNS(=O)(=O)Cc2cccc([N+](=O)[O-])c2)C(=O)NO)cc1
